Measurements published in US20130244296A1, “HALOGENATION ENZYMES” (priority 2011, published 2013).
Where two headings read alike, the source gives them in different places.

What was measured:
[1] = tested on: heat shock protein 90 (Hsp90); details: general statement, no test described; cited from earlier work
Rdc2 halogenase = molecular target: T1, Rdc2 halogenase (Metacordyceps chlamydosporia, UniProt B3FWT7, INS404VIQGSGSS/INS87YTDFIA/S88A); assay type: biochemical, P. chlamydosporia; details: three independent experiments
T1 construct: 2 was concentrated and exchanged into Buffer A; His6 (N); made in house; host or cells: Escherichia coli BL21-CodonPlus (DE3)-RIL
T1 sequence (B3FWT7 other isoform, or with tags, fused parts or gaps INS87YTDFIA/S88A/INS404VIQGSGSS): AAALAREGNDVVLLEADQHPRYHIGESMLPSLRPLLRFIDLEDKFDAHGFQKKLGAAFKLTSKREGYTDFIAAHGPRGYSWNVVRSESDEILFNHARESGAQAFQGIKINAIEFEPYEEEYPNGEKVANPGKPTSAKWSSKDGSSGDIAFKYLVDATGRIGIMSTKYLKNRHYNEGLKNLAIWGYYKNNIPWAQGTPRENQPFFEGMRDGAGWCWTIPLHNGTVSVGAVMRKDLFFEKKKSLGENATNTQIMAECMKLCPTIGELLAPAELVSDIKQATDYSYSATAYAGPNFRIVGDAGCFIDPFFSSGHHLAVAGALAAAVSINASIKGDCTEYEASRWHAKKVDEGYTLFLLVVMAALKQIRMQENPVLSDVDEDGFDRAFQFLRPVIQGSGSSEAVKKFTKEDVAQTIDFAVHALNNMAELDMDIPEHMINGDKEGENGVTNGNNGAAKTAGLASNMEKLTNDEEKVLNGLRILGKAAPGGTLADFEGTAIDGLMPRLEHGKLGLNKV
Description: Kinetic analysis of two chlorination steps of dihydroresorcylide (compound 3) by an Rdc2 halogenase of the present disclosure was carried out. Dihydroresorcylide (compound 3) was chosen as the substrate to study the kinetics of the Rdc2 halogenase. To measure the ka, and Km for the C-11 chlorination, a series of 100-μL reaction systems were set up containing 100 μM FAD, 10 mM NADH, 10 mM NaCl, 16 μM Fre, and 16 μM Rdc2 halogenase in 100 mM phosphate buffer (pH 7.0) with varying amount of compound 3 (0.17 to 1.71 mM) in each tube. All the reaction components and Fre were mixed thoroughly and maintained at 28° C. for 2 min. Rdc2 was then added to initiate the reaction. After 30 minutes, the reactions were quenched with 200 μL of MeOH, briefly vortexed, and centrifuged at 15,000 rpm for 5 minutes. Product formation was quantified on the HPLC at 315 nm based on the area of the peaks and standard curve of compound 3a. Reactions were run in triplicate and the steady-state parameters kcat and Km were determined by nonlinear fitting of Michaelis-Menten equation.
For the second halogenations step, C-13 chlorination, the same method was used to determine kcat and Km except that 11-chlorodihydroresorcylide (compound 3a) was used as the substrate (0.03-0.18 mM).

[2] = C-13 halogenation (chlorination), compound 3a as substrate

C[C@@H]1C[C@H]2O[C@@H]2/C=C\C=C\C(=O)Cc2cc(O)cc(O)c2C(=O)O1 [Compound 1, monocillin I]
Hsp90 inhibition [1]: potent

C[C@@H]1C[C@H]2O[C@@H]2/C=C\C=C\C(=O)Cc2c(Cl)c(O)cc(O)c2C(=O)O1 [Compound 1a, radicicol]
Hsp90 inhibition [1]: potent

C[C@H]1CCCCCC(=O)Cc2cc(O)cc(O)c2C(=O)O1 [Compound 3, dihydroresorcylide]
Km (Rdc2 halogenase; C-11 halogenation (chlorination), compound 3 as substrate, 16 μM Fre, 16 μM Rdc2, pH 7.0, 28° C., 30 minutes): 281 ± 20 µM
kcat (Rdc2 halogenase; C-11 halogenation (chlorination), compound 3 as substrate): 0.0137 ± 0.000667 s⁻¹

CC1CCCC(=O)CCCc2c(Cl)c(O)cc(O)c2C(=O)O1 (stereo not drawn) [Compound 3a, 11-chlorodihydroresorcylide]
Km (Rdc2 halogenase; [2]): 846 ± 26 µM
kcat (Rdc2 halogenase; [2]): 0.0016 ± 6.7e-05 s⁻¹
